Legend:
lower arm musculature [1] = experiment: Intermittent test with the lower arm musculature, blood tests and acid-base status; assay type: in vivo, human
Protocol: (§1) In a double-blind study, creatine pyruvate (A) and placebo (B) were tested. The male experimental subjects (n=32; age: 18 to 32) were divided into groups, each of n=16, so that the maximum oxygen consumption per kilogram of body weight was on average the same in the groups, and the types of sport undertaken were usually distributed the same as far as possible. This led to the fact that the mean strength in the intermittent studies was not the same. The test subjects of group A were administered 5.0 g of creatine pyruvate per day over a period of 28 days. The initial test (IT) was carried out on the 1st day, and the closing test (CT) on the 29th day.
The arm of the seated test subjects is positioned extended (horizontally) at the side at shoulder height. The hand lies on an adjustable-weight gripper (stroke length: 3 cm). The arm is supported at the elbow. The test subjects must perform highly intensive intermittent work, for which they compress the adjustable-weight gripper at the maximum possible frequency. The weight in the basket is 80% of the maximum weight achieved in a preliminary test in which the load, starting at 7.5 kg, is increased by 2.5 kg every 3 minutes. The contraction frequency is 24/min. The maximum weight is reached when the 3 cm stroke length can no longer be overcome. Blood is taken from the cubital vein on the working arm. The skin blood flow is reduced by cooling. […]

[2] = Double-blind study, anthropometric data; assay type: in vivo, human
Protocol: as §1, with “day. In the morning between 8 and 11 o'clock fasted blood sampling, record of anthropometric data; standardized breakfast; then intermittent test of the lower arm musculature. […] The circumference of the thickest part of the lower arm increased in group A (p<0.005).” for “day.”

[3] = parameters: species or system human; conditions: in vivo
Protocol: as §1, with “day. In the morning between 8 and 11 o'clock fasted blood sampling, record of anthropometric data; standardized breakfast; then intermittent test of the lower arm musculature.” for “day.”

lower arm musculature [4] = experiment: Intermittent test with the lower arm musculature, mechanical parameters; assay type: in vivo, human
Protocol: as §1
The arm of the seated test subjects is positioned extended (horizontally) at the side at shoulder height. The hand lies on an adjustable-weight gripper (stroke length: 3 cm). The arm is supported at the elbow. The test subjects must perform highly intensive intermittent work, for which they compress the adjustable-weight gripper at the maximum possible frequency. The weight in the basket is 80% of the maximum weight achieved in a preliminary test in which the load, starting at 7.5 kg, is increased by 2.5 kg every 3 minutes. The contraction frequency is 24/min. The maximum weight is reached when the 3 cm stroke length can no longer be overcome. Blood is taken from the cubital vein on the working arm. The skin blood flow is reduced by cooling. Blood was taken in each case before and after the 1st, 2nd, 6th, 9th and 10th period.
Via an inductive distance measurer on the adjustable-weight gripper, the stroke length of the weight basket was measured. From the signal, 4 measurements can be obtained. • 1. Contraction rate • 2. Stroke length • 3. Duration of the total contraction • 4. Integral of stroke length over time
The force is the mean force during the shortening phase, not the point-measurement maximum force. It is only the force which was developed additionally to the force necessary to overcome the force of gravity. In addition, the relaxation rate and the contraction frequency were determined. The evaluation was started with the fourth contraction. Thereafter, each contraction was evaluated over 12 seconds. The mechanical parameters were determined in the 1st, 2nd, 6th and 9th interval.

[5] = administration of creatine pyruvate
[6] = closing test, day 29, after 5.0 g per day over 28 days
[7] = initial vs closing test, 5.0 g per day over 28 days
[8] = initial vs closing test, p<0.005
[9] = highly intensive intermittent work, 80% of maximum weight, analysis of variance, p<0.01

Change of HB [3]: not different | Change of Hct [3]: not different | Change of LDL cholesterol [3]: just above the level of significance | Change of leukocyte number [3]: no difference | Change of number of erythrocytes [3]: decreased significantly | Change of uric acid concentration [3]: significant decrease | Creatinine, CT mean [3]: 1.19 | Creatinine, IT mean [3]: 1.07 mg/dL | Effect on fat metabolism at rest [3]: no effect | Erythrocytes, CT mean [3]: 4.96 | Erythrocytes, IT mean [3]: 5.3 10^6/µL | Hb, CT mean [3]: 15.4 g/dL | Hb, IT mean [3]: 15.56 | Hct, CT mean [3]: 45.13 | Hct, IT mean [3]: 45.5% | Leukocytes, CT mean [3]: 9386.67 | Leukocytes, IT mean [3]: 8980 µL⁻¹ | PT, CT mean [3]: 6.20 | PT, IT mean [3]: 5.40 | Urea, CT mean [3]: 30.00 | Urea, IT mean [3]: 34.07 | Uric acid, CT mean [3]: 5.29 mg/dL | Uric acid, IT mean [3]: 5.64 mg/dL
Substance: creatine pyruvate
Overacidification of muscle tissue in highly intensive intermittent exertion (lower arm musculature [1]; [5]): does not occur, or only occurs to a very slight extent | Rise of maximum values during exertion (parameter not named at the place) (lower arm musculature [1]; t test for paired random samples, p<0.002): significantly lower rise | BIA fat measurement, CT mean [2, 6]: 16.63 kg | BIA water measurement, CT mean [2, 6]: 47.39 kg | Body fat (skinfold), CT mean [2, 6]: 11.59% | Body weight, CT mean [2, 6]: 83.20 kg | Circumference of lower elbow, CT mean [2, 6]: 29.62 cm | Circumference of thickest point of the arm, CT mean [2, 6]: 29.67 cm | BIA fat measurement, IT mean ([2]; initial test, day 1): 16.69 kg | BIA water measurement, IT mean ([2]; initial test, day 1): 46.64 kg | Body fat (skinfold), IT mean ([2]; initial test, day 1): 11.33% | Circumference of lower elbow, IT mean ([2]; initial test, day 1): 28.94 cm | Circumference of thickest point of the arm, IT mean ([2]; initial test, day 1): 29.01 cm | Body weight, IT mean ([2]; initial test, day 1, group A, 5.0 g per day over 28 days): 81.70 kg | Change of body fat content (skinfold thickness and BIA) [2, 7]: no change in body fat content | Change of body weight [2, 7]: increased significantly | Change of body fat content (skinfold thickness and BIA) ([2]; initial vs closing test, 5.0 g per day over 28 days, listed as A): remained the same | Change of body H2O ([2]; initial vs closing test, one-sided test, p<0.05): increases in body H2O were significant | Change of circumference at the epicondyles [2, 8]: The same applied | Change of circumference of the thickest part of the lower arm [2, 8]: increased | Effects on kidney and liver function and fat metabolism parameters [3]: no adverse effects | Muscle fatigue under highly intensive intermittent exertion (lower arm musculature [4]; [5]): significant reduction in muscle fatigue | Relaxation rate (lower arm musculature [4]; highly intensive intermittent work, 80% of maximum weight): showed a tendency to increase | Power calculated from the shortening rate (lower arm musculature [4]; highly intensive intermittent work, 80% of maximum weight, analysis of variance, p<0.005): increased in all intervals | Contraction frequency (lower arm musculature [4]; [9]): increased in all intervals | Force (lower arm musculature [4]; [9]): increased in all intervals | Performance in highly intensive exertion (lower arm musculature [4]; short exertion and final intervals): significant increase in performance
